These results are taken from the Kinase Knowledgebase extract (Sharma et al. 2016).

A word on the IC50: it is the midpoint of a concentration-inhibition curve.

Several values for one entry are separate records, joined by “and”; a condition that tells them apart may be missing. Equal values may be shown once. A value given as a limit tells only on which side of the number the result lay.

Chain of ROCK2 (human) (O75116 whole entry, looked up): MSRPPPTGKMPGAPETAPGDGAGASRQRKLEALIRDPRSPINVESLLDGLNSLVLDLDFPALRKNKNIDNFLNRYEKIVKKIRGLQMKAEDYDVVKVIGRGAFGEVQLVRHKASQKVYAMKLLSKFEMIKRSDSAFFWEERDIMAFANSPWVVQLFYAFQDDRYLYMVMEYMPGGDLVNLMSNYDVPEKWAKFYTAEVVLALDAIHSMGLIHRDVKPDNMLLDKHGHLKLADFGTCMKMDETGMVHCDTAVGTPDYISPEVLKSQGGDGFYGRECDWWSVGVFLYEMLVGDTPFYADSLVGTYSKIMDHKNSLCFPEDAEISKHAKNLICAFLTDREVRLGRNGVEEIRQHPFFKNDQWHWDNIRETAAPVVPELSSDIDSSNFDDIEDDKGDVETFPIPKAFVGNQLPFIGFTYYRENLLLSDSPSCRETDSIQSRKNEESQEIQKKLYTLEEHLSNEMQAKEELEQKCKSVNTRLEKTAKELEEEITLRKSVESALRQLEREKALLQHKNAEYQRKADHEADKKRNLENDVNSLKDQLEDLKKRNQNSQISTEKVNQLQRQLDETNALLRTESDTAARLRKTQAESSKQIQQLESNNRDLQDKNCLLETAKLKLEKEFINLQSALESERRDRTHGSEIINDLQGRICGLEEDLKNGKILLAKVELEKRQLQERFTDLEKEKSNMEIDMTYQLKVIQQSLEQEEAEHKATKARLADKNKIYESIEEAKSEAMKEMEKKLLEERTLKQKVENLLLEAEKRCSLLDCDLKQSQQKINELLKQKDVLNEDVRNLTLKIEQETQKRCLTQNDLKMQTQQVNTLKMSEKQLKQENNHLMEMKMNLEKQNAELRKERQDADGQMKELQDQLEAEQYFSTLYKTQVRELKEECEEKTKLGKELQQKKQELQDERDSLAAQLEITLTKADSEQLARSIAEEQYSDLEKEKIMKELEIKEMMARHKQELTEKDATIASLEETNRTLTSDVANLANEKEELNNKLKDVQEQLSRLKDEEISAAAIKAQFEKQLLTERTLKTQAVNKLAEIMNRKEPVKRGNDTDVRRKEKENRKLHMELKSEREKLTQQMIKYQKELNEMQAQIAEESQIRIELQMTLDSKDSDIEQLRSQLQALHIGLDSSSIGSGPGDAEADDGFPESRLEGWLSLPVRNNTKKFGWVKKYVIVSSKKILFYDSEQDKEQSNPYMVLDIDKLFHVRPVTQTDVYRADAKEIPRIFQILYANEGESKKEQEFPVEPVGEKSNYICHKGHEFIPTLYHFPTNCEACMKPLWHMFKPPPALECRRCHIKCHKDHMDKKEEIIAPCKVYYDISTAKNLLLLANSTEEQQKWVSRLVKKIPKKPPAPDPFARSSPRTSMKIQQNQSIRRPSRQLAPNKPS

This experiment has as its target ROCK2 (human) (UniProt O75116). Description: Inhibition of ROCK2 Kinase Activity.
On to `N[C@@H](c1ccc(F)cc1)C1CCC(Oc2cc3cc[nH]c(=O)c3cc2Cl)CC1` (some centres undefined), for which the IC50 is ≤ 10 nM.

With `CCC(N)C1(c2ccc(F)cc2)CC(Oc2cc3cc[nH]c(=O)c3cc2Cl)C1` (centres undefined), the IC50 lay within 100 to 1000 nM.

As to `CC[C@@H](N)[C@]1(c2ccc(F)cc2)CC[C@H](Oc2cc3cc[nH]c(=O)c3cc2Cl)CC1`, the IC50 was ≤ 10 nM.

As to `N[C@@H](c1ccccc1)[C@]1(c2ccccc2)CC[C@@H](Oc2cc3cc[nH]c(=O)c3cc2Cl)CC1`, the IC50 fell in the range of 100 to 1000 nM.

Turning to `Cc1ccc(C(N)C2CCC(Oc3cc4cc[nH]c(=O)c4cc3Cl)CC2)cc1` (centres undefined), the IC50 was ≤ 10 nM and 10 to 100 nM.

`N[C@H](c1ccccc1)[C@]1(c2ccccc2)CC[C@@H](Oc2cc3cc[nH]c(=O)c3cc2Cl)CC1`: the IC50 is 10 to 100 nM.

For `COc1ccc(C(N)[C@H]2CC[C@H](Oc3cc4cc[nH]c(=O)c4cc3Cl)CC2)cc1` (some centres undefined), the IC50 lay within 10 to 100 nM.

`CC(N)(C1CCCC1)C1CCC(Oc2cc3cc[nH]c(=O)c3cc2Cl)CC1` (centres undefined): the IC50 is 100 to 1000 nM.

In the case of `N[C@H](c1ccc(F)cc1)C1CCC(Oc2cc3cc[nH]c(=O)c3cc2Cl)CC1` (some centres undefined), the IC50 lay in the range of 100 to 1000 nM.

Regarding `NC(c1ccc(F)cc1)C1CCC(Oc2cc3cc[nH]c(=O)c3cc2Cl)CC1` (centres undefined), the IC50 is ≤ 10 nM.

The compound `NC(C1CCC(Oc2cc3cc[nH]c(=O)c3cc2Cl)CC1)C1CC1` (centres undefined) gave an IC50 of 100 to 1000 nM.

In turn, `CC(N)(C1CCC(Oc2cc3cc[nH]c(=O)c3cc2Cl)CC1)C1CC1` (centres undefined) showed an IC50 of 100 to 1000 nM.

With `CCC(N)[C@]1(c2cccc(Br)c2)CC[C@H](Oc2cc3cc[nH]c(=O)c3cc2Cl)CC1` (some centres undefined), the IC50 is ≤ 10 nM.

Turning to `CC[C@@H](N)[C@]1(c2ccccc2)CC[C@H](Oc2cc3cc[nH]c(=O)c3cc2Cl)CC1`, the IC50 is ≤ 10 nM.

`CC[C@H](N)[C@]1(c2ccccc2)CC[C@H](Oc2cc3cc[nH]c(=O)c3cc2Cl)CC1`: the IC50 is ≤ 10 nM.

Compound `COc1ccc(C(C)(N)C2CCC(Oc3cc4cc[nH]c(=O)c4cc3Cl)CC2)cc1` (centres undefined) showed an IC50 of 10 to 100 nM.

As to `CCC(N)(CC)C1CCC(Oc2cc3cc[nH]c(=O)c3cc2Cl)CC1` (centres undefined), the IC50 was 100 to 1000 nM and 10 to 100 nM.

Compound `CCCC(C)(N)C1CCC(Oc2cc3cc[nH]c(=O)c3cc2Cl)CC1` (centres undefined) yielded an IC50 of 10 to 100 nM.

Regarding `COc1ccc(C(N)[C@H]2CC[C@@H](Oc3cc4cc[nH]c(=O)c4cc3Cl)CC2)cc1` (some centres undefined), the IC50 is ≤ 10 nM.

With `CC(N)(c1ccc(F)cc1)C1CCC(Oc2cc3cc[nH]c(=O)c3cc2Cl)CC1` (centres undefined), the IC50 is 10 to 100 nM.

Take `CC[C@@H](N)[C@]1(c2ccccc2)CC[C@@H](Oc2cc3cc[nH]c(=O)c3cc2Cl)CC1`: the IC50 fell in the range of 10 to 100 nM.

Compound `CCC(N)C1CCC(Oc2cc3cc[nH]c(=O)c3cc2Cl)CC1` (centres undefined) showed an IC50 of 10 to 100 nM.

`CC(N)(c1ccccc1)C1CCC(Oc2cc3cc[nH]c(=O)c3cc2Cl)CC1` (centres undefined) had an IC50 of 10 to 100 nM.

On to `CCC(N)[C@]1(c2ccc(C)c(OC)c2)CC[C@H](Oc2cc3cc[nH]c(=O)c3cc2Cl)CC1` (some centres undefined), for which the IC50 was ≤ 10 nM.
